Test results: patent publication US6846933B1, “Antimycobacterial compounds and method for making the same” (priority 2000, dated 2005)
In brackets after ≈: the same amount, converted by molar mass. Like-named read-outs stand apart in the source and are kept apart here.

Key:
M. avium (ATCC 25291) = assay: TAACF M. avium assay; format: cell-based, Mycobacterium avium; parameters: % Inhibition: concentration or dose not given beside the values; conditions: for % Inhibition: M. avium assay; for MIC: Mycobacterium avium
[1] = test system: Mycobacterium tuberculosis H37Rv (ATCC 27294); assay: TAACF MIC / primary screen vs M. tuberculosis H37Rv (MABA or BACTEC 460); format: cell-based; conditions: for MIC: Mycobacterium tuberculosis
[2] = test system: M. tuberculosis Erdman (ATCC 35801) in monolayers of mouse bone marrow macrophages; assay: Killing of M. tuberculosis Erdman in mouse bone marrow macrophages; format: cell-based; conditions: Mycobacterium tuberculosis, Bone marrow macrophage, 168 h
M. avium 101 = assay: Broth dilution MIC vs M. avium 101; format: cell-based; conditions: Mycobacterium avium, modified 7H10 broth, lowest concentration with no turbidity
M. tuberculosis EMB-R = assay: microbe, parasite or virus in culture; format: cell-based; conditions: Mycobacterium tuberculosis, read-out: MIC EMB-R (ug/ml)
M. tuberculosis Erdman = assay: MIC vs M. tuberculosis Erdman; format: cell-based; conditions: Mycobacterium tuberculosis
VERO cells = assay: Cytotoxicity in VERO cells (MTT, 72 hours); format: cell-based; conditions: Chlorocebus sabaeus
[3] = Quantitative estimate of relative lipophilicity (chloroform/water partitioning vs isoniazid); conditions: ratio chloroform:water compared to same ratio for isoniazid as standard (INH = unity)
M. tuberculosis ETA-R = assay: MIC vs ETA-R M. tuberculosis; format: cell-based; conditions: Mycobacterium tuberculosis, read-out: MIC ETA-R (ug/ml)
M. tuberculosis TAC-R = assay: microbe, parasite or virus in culture; format: cell-based; conditions: Mycobacterium tuberculosis, Bactec, strain panel
[4] = ATCC25291, M. avium assay, Bactec, Tables 10-12, read-out: MIC
[5] = M. tuberculosis assay, Tables 4 and 5, read-out: MIC
[6] = M. tuberculosis assay, Alamar, Table 7
[7] = Bactec, strain panel, read-out: MIC H37Rv
[8] = Bactec, strain panel, read-out: MIC Erdman
[9] = ATCC25291, M. avium assay, BACTEC, Tables 2 and 3, read-out: MIC
[10] = M. tuberculosis assay, Table 13, primary screen
[11] = M. tuberculosis assay, Table 13, primary screen, read-out: MIC
[12] = M. tuberculosis assay, Bactec, Tables 6, 7, 8, read-out: MIC

O=C(NNC(=S)Nc1ccc(Br)cc1)c1ccncc1 [Sample ID 125304]
% Inhibition (M. avium (ATCC 25291); Bactec, Tables 10-12): 15%
MIC (M. avium (ATCC 25291); [4]): > 12.5 µg/mL

CCOC(=O)C/C(C)=N/NC(=O)c1ccncc1 [Sample ID 101743]
MIC [1, 5]: 0.2 µg/mL (≈ 0.802 µM)
EC90 [2]: 0.01 µg/mL (≈ 0.0401 µM)
EC99 [2]: > 3.2 µg/mL

CC[C@H]1OC(=O)[C@H](C)[C@@H](O[C@H]2C[C@@](C)(OC)[C@@H](O)[C@H](C)O2)[C@H](C)[C@@H](O[C@@H]2O[C@H](C)C[C@H](N(C)C)[C@H]2O)[C@](C)(OC)C[C@@H](C)C(=O)[C@H](C)[C@@H](O)[C@]1(C)O [Clarithromycin, reference compound]
MIC (M. avium (ATCC 25291); ATCC25291, reference control, read-out: MIC Clarithromycin vs. M. avium (control in Comment column)): 2 µg/mL (≈ 2.67 µM)
MIC (M. avium 101): 2 µg/mL (≈ 2.67 µM)

COc1ccccc1/C=N/NC(=O)c1ccncc1 [Sample ID 102871]
MIC [1, 5]: 0.2 µg/mL (≈ 0.783 µM)
EC90 [2]: 0.06 µg/mL (≈ 0.235 µM)
EC99 [2]: 0.23 µg/mL

O=C(N/N=C/c1ccccc1)c1ccncc1 [Sample ID 102787]
MIC [1, 5]: 0.1 µg/mL (≈ 0.444 µM)
EC90 [2]: 0.04 µg/mL (≈ 0.178 µM)
EC99 [2]: 0.12 µg/mL

O=CNNC(=O)c1ccncc1
melting point: 94 to 96 °C

CCCC(=O)NNC(=O)c1ccncc1
melting point: 142 °C

O=C(NN=C1CCCC1)c1ccncc1 [Sample ID 111298]
MIC ([1]; M. tuberculosis assay, Bactec, Tables 6, 7, 8): 0.02 µg/mL (≈ 0.0984 µM)
MIC [1, 5]: 0.025 µg/mL (≈ 0.123 µM)
MIC ([1]; read-out: MIC H37Rv (ug/ml), Bactec, strain panel): 0.05 µg/mL (≈ 0.246 µM)
MIC (M. tuberculosis EMB-R): 0.05 µg/mL (≈ 0.246 µM)
MIC (M. tuberculosis Erdman; read-out: MIC Erdman (ug/ml)): 0.05 µg/mL (≈ 0.246 µM)
EC90 [2]: 0.03 µg/mL (≈ 0.148 µM)
EC99 [2]: 0.16 µg/mL

O=C(N/N=C/c1ccc(Cl)c(Cl)c1)c1ccncc1 [Sample ID 122490]
% Inhibition [1, 6]: 99%
MIC ([1]; M. tuberculosis assay, Alamar, Tables 7 and 9, read-out: MIC): < 0.2 µg/mL
% Inhibition (M. avium (ATCC 25291); Bactec, Tables 10-12): 20%
MIC (M. avium (ATCC 25291); [4]): > 12.5 µg/mL
IC50 (VERO cells): > 10 µg/mL

O=C(NN=Cc1ccccc1[N+](=O)[O-])c1ccncc1 [Schiff Base Example 47, Isonicotinoylhydrazone of 2-Nitrobenzaldehyde]
Relative Lipophilicity [3]: 316

O=C(N/N=C/C=C(c1ccccc1)c1ccccc1)c1ccncc1 [Sample ID 132532]
MIC [1, 7]: 0.1 µg/mL (≈ 0.305 µM)
MIC (ug/mg) ([1]; Table 1, M. tuberculosis assay, Bactec): 0.1 µg/mL (≈ 0.305 µM)
MIC (M. tuberculosis EMB-R): > 3.2 µg/mL
MIC (M. tuberculosis Erdman; [8]): 0.1 µg/mL (≈ 0.305 µM)
MIC (M. avium (ATCC 25291); [9]): > 3.2 µg/mL
MIC (M. tuberculosis ETA-R): 1.6 µg/mL (≈ 4.89 µM)

O=C(N/N=C/c1cccc(/C=N/NC(=O)c2ccncc2)c1)c1ccncc1 [Sample ID 102043]
MIC [1, 5]: 0.05 µg/mL (≈ 0.134 µM)
EC90 [2]: 0.04 µg/mL (≈ 0.107 µM)
EC99 [2]: > 0.8 µg/mL

CC(=O)N1N=C(c2ccncc2)OC1c1ccccc1[N+](=O)[O-] (stereo not shown) [Sample ID 123667]
% Inhibition [1, 10]: 38%
MIC [1, 11]: > 12.5 µg/mL

CC(=O)N1N=C(c2ccncc2)OC1c1c(Cl)cccc1Cl (stereo not shown) [Sample ID 117899]
% Inhibition (M. avium (ATCC 25291); Alamar, Table 11): 12%
MIC (M. avium (ATCC 25291); ATCC25291, M. avium assay, Alamar, Table 11, read-out: MIC): > 12.5 µg/mL

O=C(N/N=C/c1c(F)cccc1F)c1ccncc1 [Sample ID 122489]
% Inhibition [1, 6]: 99%
MIC ([1]; M. tuberculosis assay, Alamar, Tables 7 and 9): < 0.2 µg/mL
% Inhibition (M. avium (ATCC 25291); Bactec, Tables 10-12): 45%
MIC (M. avium (ATCC 25291); [4]): > 12.5 µg/mL
IC50 (VERO cells): > 125 µg/mL

CC(C)=CCCC(C)C/C=N/NC(=O)c1ccncc1 (stereo not shown) [Sample ID 102044]
MIC (M. tuberculosis TAC-R): 3.13 µg/mL (≈ 11.4 µM)
MIC [1, 7]: < 0.1 µg/mL
MIC [1, 12]: 0.2 µg/mL (≈ 0.732 µM)
MIC [1, 5]: 0.2 µg/mL (≈ 0.732 µM)
MIC (M. tuberculosis Erdman; [8]): < 0.1 µg/mL
EC90 [2]: 0.02 µg/mL (≈ 0.0732 µM)
EC99 [2]: 0.08 µg/mL
MIC (M. avium (ATCC 25291); [9]): 0.78 µg/mL (≈ 2.85 µM)

COc1ccc(/C=N/NC(=O)c2ccncc2)cc1 [Sample ID 102866]
MIC (M. tuberculosis TAC-R): < 3.25 µg/mL
MIC [1, 7]: < 0.05 µg/mL
MIC [1, 12]: 0.1 µg/mL (≈ 0.392 µM)
MIC [1, 5]: 0.1 µg/mL (≈ 0.392 µM)
MIC (M. tuberculosis Erdman; read-out: MIC Erdman (ug/ml)): < 0.05 µg/mL
EC90 [2]: 0.04 µg/mL (≈ 0.157 µM)
EC99 [2]: 0.15 µg/mL
MIC (M. avium (ATCC 25291); [9]): 3.25 µg/mL (≈ 12.7 µM)

O=C(NN=C1CCCCC1)c1ccncc1 [Sample ID 102674]
MIC [1, 5]: 0.03 µg/mL (≈ 0.138 µM)
EC90 [2]: 0.08 µg/mL (≈ 0.368 µM)
EC99 [2]: > 0.4 µg/mL

CC(=O)N1N=C(c2ccncc2)OC1(C)c1ccccc1 (stereo not shown) [Sample ID 122487]
% Inhibition [1, 10]: 98%
MIC [1, 11]: < 12.5 µg/mL

CCCCOc1ccc(/C=N/NC(=O)c2ccncc2)cc1 [Sample ID 102090]
MIC [1, 5]: 0.1 µg/mL (≈ 0.336 µM)
EC90 [2]: 0.18 µg/mL (≈ 0.605 µM)
EC99 [2]: > 1.6 µg/mL
